The numbers were not newly measured in US20070213354A1, “Compositions and Methods for the Treatment of Multiple Sclerosis” (AmpliMed Corporation, priority 2006, published 2007), which cites them from elsewhere.

The subject of one series is L1210 sensitive. To be noted: murine leukemia L1210 sensitive to standard cytotoxic agents; MTT, continuous exposure; cited from earlier work.
Another series concerns L1210 resistant. As to conditions: murine leukemia L1210 resistant, P-glycoprotein producing; MTT, continuous exposure; cited from earlier work.
A further series relates to neonatal rat myocytes. As to conditions: 1 hour drug concentration that reduces ATP/protein ratio to 50% of untreated control myocytes; read-out: IC50 Cardiotox; cited from earlier work.

As for `CCN1CCCC1CN1C(=O)c2cccc3cc4ccccc4c(c23)C1=O` (centres unmarked) [2-CH2-(1-ethyl-2-pyrrolidinyl)], the IC50 was 36 nM with L1210 sensitive, 55 nM in the series on L1210 resistant and 15200 nM with neonatal rat myocytes.
Consider `CN(C)CCN1C(=O)c2c(Cl)ccc3cc4ccccc4c(c23)C1=O` [*4-Cl], for which the IC50 in the series on L1210 sensitive was 10 nM; with L1210 resistant, 15 nM; with neonatal rat myocytes, 900 nM.
`CN(C)CCNc1ccc2cc3ccccc3c3c2c1C(=O)N(CCN(C)C)C3=O` [*4-NH(CH2)2N(CH3)2]: the IC50 in the series with L1210 sensitive is 210 nM; in the series with L1210 resistant, 245 nM; in the series on neonatal rat myocytes it was 734 nM.
Turning to `CN(C)CCNc1ccc2c3c(c4cccc(Cl)c4cc13)C(=O)N(CCN(C)C)C2=O` [*6-NH(CH2)2N(CH3)2; 8-Cl], the results for the IC50 with L1210 sensitive, with L1210 resistant and in the series on neonatal rat myocytes were 3 nM, 7 nM and 3230 nM, respectively.
Consider `CC(=O)Nc1cc2c3c(c4ccccc4cc3c1)C(=O)N(CCN(C)C)C2=O` [*5-NHCOCH3], for which the IC50 in the series with L1210 sensitive is 19 nM; in the series on L1210 resistant, 73 nM; with neonatal rat myocytes it was 177 nM.
As for `CSc1c2ccccc2c2c3c(cccc13)C(=O)N(CCN(C)C)C2=O` [*7-SCH3], the IC50 with L1210 sensitive was 6250 nM; in the series on L1210 resistant, 1220 nM; with neonatal rat myocytes, above 50000 nM.
In the case of `CN(C)CCN1C(=O)c2ccc(Cl)c3cc4ccccc4c(c23)C1=O` [*6-Cl], the half-maximal inhibitory concentration (IC50) with L1210 sensitive is 77 nM; with L1210 resistant it was 64 nM; with neonatal rat myocytes, 4110 nM.
On to `Cc1c2ccccc2c2c3c(cccc13)C(=O)N(CCN(C)C)C2=O` [*7-CH3], for which the IC50 in the series with L1210 sensitive is 34 nM; in the series on L1210 resistant it was 70 nM; in the series with neonatal rat myocytes, 1680 nM.
With `O=C1c2cccc3cc4ccccc4c(c23)C(=O)N1CCN1CCOCC1` [2-(CH2)2—N-morpholinyl], the IC50 in the series with L1210 sensitive is 512 nM; in the series on L1210 resistant it was 512 nM; with neonatal rat myocytes it was above 25000 nM.
Consider `CN(C)CCN1C(=O)c2cc(N)cc3cc4ccccc4c(c23)C1=O` [*5-NH2], for which the IC50 with L1210 sensitive is 6 nM; in the series on L1210 resistant, 15 nM; in the series with neonatal rat myocytes, 1720 nM.
For `CNCCN1C(=O)c2ccc(OC)c3cc4ccccc4c(c23)C1=O` [2-(CH2)2NHCH3; 6-OCH3], the results for the IC50 with L1210 sensitive, in the series on L1210 resistant and in the series on neonatal rat myocytes were 41 nM, 27 nM and 8100 nM, respectively.
Turning to `CCOc1ccc2cc3cccc4c3c(c2c1)C(=O)N(CCN(C)C)C4=O` [*10-OC2H5], the results for the IC50 in the series with L1210 sensitive, in the series on L1210 resistant and in the series with neonatal rat myocytes were 25 nM, 50 nM and 11300 nM, respectively.
In the case of `CN(C)CCN1C(=O)c2cccc3cc4ccc(NC(=O)C(C)(C)C)cc4c(c23)C1=O` [*10-NHCOC(CH3)3], the IC50 in the series on L1210 sensitive was 200 nM; with L1210 resistant, 200 nM; with neonatal rat myocytes, 11000 nM.
For the compound `Cc1ccc2cc3cccc4c3c(c2c1)C(=O)N(CCN(C)C)C4=O` [*10-CH3], the IC50 with L1210 sensitive was 41 nM; in the series on L1210 resistant it was 54 nM; in the series with neonatal rat myocytes, 1000 nM.
As for `O=C1c2cccc3cc4ccccc4c(c23)C(=O)N1Cc1ccccn1` [2-CH2-2-pyridyl], the results for the concentration for half-maximal inhibition (IC50) in the series on L1210 sensitive, in the series on L1210 resistant and in the series on neonatal rat myocytes were 26700 nM, 26700 nM and above 25000 nM, respectively.
Take `CN(C)CCN1C(=O)c2cccc3cc4ccc(C#N)cc4c(c23)C1=O` [*10-CN]: the IC50 in the series with L1210 sensitive was 15 nM; in the series on L1210 resistant, 13 nM; in the series with neonatal rat myocytes it was 105 nM.
Consider `O=C1c2cccc3cc4ccccc4c(c23)C(=O)N1CCCN(CCO)CCO` [2-(CH2)3N(CH2CH2OH)2], for which the IC50 in the series on L1210 sensitive is 76 nM; with L1210 resistant, 142 nM; in the series on neonatal rat myocytes it was 8910 nM.
On to `COc1ccc2c3c(c4ccccc4cc13)C(=O)N(CCN(C)C)C2=O` [*6-OCH3], for which the results for the IC50 with L1210 sensitive, with L1210 resistant and in the series with neonatal rat myocytes were 3 nM, 4 nM and 799 nM, respectively.
In the case of `O=C1c2cccc3cc4ccccc4c(c23)C(=O)N1CCNCCO` [2-(CH2)2NH(CH2)2OH], the IC50 in the series on L1210 sensitive was 18 nM; in the series on L1210 resistant it was 41 nM; in the series on neonatal rat myocytes, 943 nM.
With `CN(C)CCN1C(=O)c2cccc3cc4ccc(F)cc4c(c23)C1=O` [*10-F], the IC50 was 8 nM with L1210 sensitive and 456 nM with neonatal rat myocytes.
